{"source": "paper PMC5684613", "about": "(BioMed Research International, 2017)", "key": {"[1]": {"parameters": "method as in Kim et al. [32]", "details": "simultaneous administration of curcumin, rats; ref Kim et al. [32]; cited from earlier work"}, "[2]": {"details": "cited from earlier work"}, "[3]": {"test": "Phase solubility study of DRV in aqueous carrier solutions"}, "[4]": {"test": "Dissolution studies in FaSSIF and FeSSIF media", "type": "physicochemical", "details": "n = 3", "description": "These two biorelevant media, FaSSIF and FeSSIF, were developed to simulate the condition of the intestine in the fasted and fed states.\nBlank FaSSIF was prepared by dissolving 6.186 g NaCl, 4.47 g NaH2PO4, and 0.348 g NaOH in 900 ml of distilled water and the pH was adjusted to 6.5 by using 1 N NaOH or HCl using pH meter. The volume was made up to 1000 ml using distilled water.\nBlank FaSSIF medium (500 ml) was taken and 2.240 g SIF powder was added to it and this solution was magnetically stirred until the powder completely dissolved to obtain a clear micellar solution. The volume was made up to 1000 ml using the buffer. The solution was allowed to stand for 2 h; it becomes slightly opalescent and thereafter used. A volume of 500 ml is recommended for dissolution for simulating fasted state condition\nBlank FeSSIF was prepared by dissolving 8.65 g glacial acetic acid, 11.874 g NaCl, and 4.04 g NaOH in 900 ml of distilled water and the pH was adjusted to 5.0 by using 1 N NaOH or HCl using pH meter. The volume was made up to 1000 ml using distilled water.\nBlank FeSSIF medium (500 ml) was taken and 11.20 g SIF powder was added to it and this solution was magnetically stirred until the powder completely dissolved to obtain a clear micellar solution. The volume was made up to 1000 ml using the buffer and thereafter used. For simulating fed state condition 1 L dissolution fluid is recommended."}, "[5]": {"system": "everted gut sac", "test": "In vitro permeation study by everted gut sac method", "type": "in vitro ADME, albino Wistar rats", "details": "after 2 h, serosal fluid, 1 mg/ml DRV outside", "description": "(§1) The tissue was continuously aerated (oxygenated) with the aid of an electrical aerator. Intestinal segments of 4 cm were cut and ligated with nylon thread at one end and carefully everted on the glass rod. The everted gut sacs were filled with 500 μl of Tyrode solution and ligated at the other end and then placed inside the test tube containing 15 mL of the test solution continuously bubbled with atmospheric air at 15–20 bubbles per min separately. Test tubes were maintained at temperature 37 ± 0.5°C on water bath. The test solution outside the sac was termed as mucosal fluid, and the solution inside the sac was termed as serosal fluid."}, "[6]": {"test": "In vitro permeation study by everted gut sac method", "type": "in vitro ADME, albino Wistar rats", "details": "male, albino Wistar, rat, pH 7.4; mucosal to serosal, n = 3; read-out: Apparent permeability coefficient mean ± SD", "description": "as §1"}, "[7]": {"test": "Oral pharmacokinetic study, fasted and fed state", "details": "for K el / AUC(0-t) / AUC / Cmax: oral; for K el / AUC(0-t) / AUC: 70 mg/kg DRV; for AUC(0-t): AUC0-t; for AUC: AUC0-α; for Cmax: C max, 70 mg/kg DRV (8 mg/kg Ritonavir)"}, "[8]": {"test": "In vitro dissolution study, USP II paddle, acetate buffer pH 4.5", "type": "physicochemical", "details": "acetate buffer pH 4.5, after 90 min, n = 3", "description": "Dissolution studies were performed using a USP II Paddle dissolution apparatus (Distek, USA). The prepared SDs were filled in 00 size capsules and placed in Japanese sinkers. The sinkers were then placed in dissolution vessels containing 900 ml of acetate buffer pH 4.5, at 75 rpm and temperature 37 ± 0.5°C. Samples (5 ml) were collected periodically at 15, 30, 45, 60, and 90 min, filtered through a 0.45 μm PVDF filter and replaced with a fresh dissolution medium (5 ml). The concentrations were analyzed at 264 nm by UV spectrophotometer."}, "[9]": {"parameters": "method as in Varma and Panchagnula [30]", "details": "ref Varma and Panchagnula [30], cited from earlier work"}, "[10]": {"details": "male, albino Wistar, rat, in vivo, po, 70 mg/kg, Group A (fasted)"}, "[11]": {"details": "male, albino Wistar, rat, in vivo, po, 70 mg/kg, Group B (fed)"}}, "note": "Read-outs that look alike come from different tables or passages of the source.", "data": [{"smiles": "CC(C)(C)NC(=O)[C@@H]1C[C@@H]2CCCC[C@@H]2CN1C[C@@H](O)[C@H](Cc1ccccc1)NC(=O)[C@H](CC(N)=O)NC(=O)c1ccc2ccccc2n1", "note": "[Saquinavir]", "values": [{"measurement": "increase of oral exposure", "setting": "[1]", "result": 2.7, "unit": "fold"}]}, {"smiles": "CC(C)CN(C[C@@H](O)[C@H](Cc1ccccc1)NC(=O)O[C@H]1CO[C@H]2OCC[C@H]21)S(=O)(=O)c1ccc(N)cc1", "note": "[DRV, Darunavir]", "values": [{"measurement": "solubility in water", "setting": "[2]", "result": 150, "unit": "µg/mL"}, {"measurement": "solubility at 72 h", "setting": "[3]", "result": 150, "unit": "µg/mL"}, {"measurement": "Cumulative % drug release (±SD) in FaSSIF", "setting": "[4]; after 30 min", "result": "13.8 ± 0.239", "unit": "%"}, {"measurement": "Cumulative % drug release (±SD) in FaSSIF", "setting": "[4]; after 60 min", "result": "25.7 ± 0.512", "unit": "%"}, {"measurement": "Cumulative % drug release (±SD) in FaSSIF", "setting": "[4]; after 90 min", "result": "31.2 ± 0.425", "unit": "%"}, {"measurement": "concentration of the drug inside the sac", "setting": "[5]", "result": "451480 ± 4020", "unit": "ng/mL"}, {"measurement": "Papp at 120 min, 1 mg/ml", "setting": "[6]", "result": "0.828 ± 0.12", "unit": "×10⁻⁶ cm/s"}, {"measurement": "K el", "setting": "[7]; Group A (fasted)", "result": "0.211 ± 0.002"}, {"measurement": "K el", "setting": "[7]; Group B (fed)", "result": "0.228 ± 0.003"}, {"measurement": "Tmax", "setting": "[7]; male, albino Wistar, rat, in vivo, po, 70 mg/kg", "result": 1, "unit": "h"}, {"measurement": "AUC(0-t)", "setting": "[7]; [10]", "result": 116, "unit": "ng·h/mL"}, {"measurement": "AUC(0-t)", "setting": "[7]; [11]", "result": 258, "unit": "ng·h/mL"}, {"measurement": "AUC", "setting": "[7]; [10]", "result": 117, "unit": "ng·h/mL"}, {"measurement": "AUC", "setting": "[7]; [11]", "result": 259, "unit": "ng·h/mL"}, {"measurement": "Cmax", "setting": "[7]; [10]", "result": "2860 ± 366", "unit": "ng/mL"}, {"measurement": "Cmax", "setting": "[7]; [11]", "result": "5870 ± 565", "unit": "ng/mL"}, {"measurement": "Cumulative % drug release (±SD)", "setting": "[8]", "result": 30.9, "unit": "%"}]}, {"smiles": "CC(=O)O[C@H]1C(=O)[C@@]2(C)[C@H]([C@H](OC(=O)c3ccccc3)[C@]3(O)C[C@H](OC(=O)[C@H](O)[C@@H](NC(=O)c4ccccc4)c4ccccc4)C(C)=C1C3(C)C)[C@]1(OC(C)=O)CO[C@@H]1C[C@@H]2O", "note": "[paclitaxel]", "values": [{"measurement": "Intrinsic permeability", "setting": "[9]; in the presence of 1 mg/ml TPGS", "result": 22, "unit": "×10⁻⁶ cm/s"}, {"measurement": "Intrinsic permeability", "setting": "[9]; without TPGS", "result": 8, "unit": "×10⁻⁶ cm/s"}]}]}
